Results: patent US20030224992A1, “Transcription factor modulators and uses thereof” (Praecis Pharmaceuticals Inc., priority 2002, published 2003)

System: androgen responsive gene, kallikrein 3 (PSA II transcripts) in LNCaP cells
Experiment: Down-regulation of androgen receptor responsive gene expression by ARE (real time PCR)
Assay type: cell-based
Conditions: electroporation, 1, 5 or 20 μM, 10 nM DHT, 4 hours

5′-AGTCTACGAGTGGGGTTCTTTTTTA-3′ (SEQ ID NO: 24) (DNA AGTCTACGAGTGGGGTTCTTTTTTA; chemistry not given here) [scrambled ARE]
steady state levels of PSA II transcripts normalized to actin (DHT induction): this was not observed
